Measured values taken from patent US8871681B2, “Herbicidal compositions comprising 4-amino-3-chloro-5-fluoro-6-(4-chloro-2-fluoro-3-methoxyphenyl) pyridine-2-carboxylic acid or a derivative thereof and certain sulfonylureas” (Dow AgroSciences LLC, priority 2012, dated 2014).

What was measured:
[1] = test system: BRAPP (Brachiaria platyphylla, broadleaf signalgrass); assay: Postemergence foliar-applied weed control, direct seeded rice, greenhouse (Example I); format: in vivo, Brachiaria platyphylla (Griseb.) Nash; conditions: Urochloa platyphylla, post-emergence, read-out: Visual Weed Control (%) Obs
How it was run: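 Greenhouse-grown plants (14 h photoperiod, 29/26 °C day/night) at first to fourth true leaf stage sprayed overhead at 187 L/ha with Compound A (acid equivalent basis) alone or mixed with sulfonylurea ALS inhibitors (active ingredient basis). Final spray contained 1.25% v/v crop oil concentrate; controls received solvent blank.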

[2] = test system: ECHOR (Echinochloa oryzoides, early watergrass); assay: In-water applied weed control, transplanted paddy rice, greenhouse (Example II); format: in vivo, Echinochloa oryzoides (Ard.) Fritsch
How it was run: (§1)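 Transplanted rice and weeds at first to fourth true leaf stage in flooded mud pots (2.5–3 cm water), greenhouse ~29/26 °C day/night. Herbicides alone or mixed, in 1.25% crop oil concentrate (acetone for technical material), injected into the flood; visual 0–100% injury after ~3 weeks, expected mixture effects by Colby.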

[3] = test system: CYPIR (Cyperus iria, rice flatsedge); assay: Postemergence foliar-applied weed control, direct seeded rice, greenhouse (Example I); format: in vivo, Cyperus iria L.; conditions: 22 DAA
From the text: (§2) Seeds or nutlets of the desired test plant species were planted in a soil matrix prepared by mixing a loam or sandy loam soil (e.g., 28.6 percent silt, 18.8 percent clay, and 52.6 percent sand, with a pH of about 5.8 and an organic matter content of about 1.8 percent) and calcareous grit in an 80 to 20 ratio. The soil matrix was contained in plastic pots with a volume of 1 quart and a surface area of 83.6 square centimeters (cm^2). When required to ensure good germination and healthy plants, a fungicide treatment and/or other chemical or physical treatment was applied. The plants were grown for 8-22 days in a greenhouse with an approximate 14 h photoperiod which was maintained at about 29° C. during the day and 26° C. during the night. Nutrients (Peters Excel® 15-5-15 5-Ca 2-Mg and iron chelate) were applied in the irrigation solution as needed and water was added on a regular basis. Supplemental lighting was provided with overhead metal halide 1000-Watt lamps as necessary. The plants were employed for testing when they reached the first through fourth true leaf stage.
(§3) Treatments consisted of the acid or esters of 4-amino-3-chloro-5-fluoro-6-(4-chloro-2-fluoro-3-methoxy-phenyl)pyridine-2-carboxylic acid (Compound A), each formulated as an SC, and various herbicidal components alone and in combination. Forms of compound A were applied on an acid equivalent basis.
(§4) Other herbicidal components were applied on an active ingredient basis and included acetolactate synthase (ALS)-inhibiting herbicides (sulfonylurea chemical class) azimsulfuron formulated as Gulliver®, bensulfuron-methyl formulated as Londax® 60DF, cyclosulfamuron (technical material), ethoxysulfuron formulated as Sunrice® 15 WDG, flazasulfuron formulated as Katana®, flucetosulfuron formulated as Sukedachi® 1KG G, foramsulfuron formulated as Option®, imazosulfuron formulated as Brazzos® WG, iodosulfuron-methyl-sodium formulated as Hussar®, metsulfuron-methyl formulated as Lorate®, nicosulfuron formulated as Accent®, orthosulfamuron formulated as Strada® WG, primisulfuron-methyl (technical material), propyrisulfuron formulated as Zeta One®, rimsulfuron formulated as Matrix® WG, sulfometuron-methyl formulated as Oust®, and trifloxysulfuron-sodium formulated as Monument® 75WG.
(§5) Treatment requirements were calculated based upon the rates being tested, the concentration of active ingredient or acid equivalent in the formulation, and a 12 mL application volume at a rate of 187 L/ha.
(§6) For treatments comprised of formulated compounds, measured amounts of compounds were placed individually in 25 mL glass vials and diluted in a volume of 1.25% (v/v) Agri-Dex® crop oil concentrated to obtain 12× stock solutions. […] Application solutions were prepared by adding an appropriate amount of each stock solution (e.g., 1 mL) and diluted to the appropriate final concentrations with the addition of 10 mL of an aqueous mixture of 1.25% (v/v) crop oil concentrate so that the final spray solutions contained 1.25+/−0.05% (v/v) Agrcrop oil concentrate.
(§7) For treatments comprised of formulated and technical compounds, weighed amounts of the technical materials were placed individually in 25 mL glass vials and dissolved in a volume of 97:3 v/v acetone/DMSO to obtain 12× stock solutions, and measured amounts of the formulated compounds were placed individually in 25 mL glass vials and diluted in a volume of 1.25% (v/v) crop oil concentrate to obtain 12× stock solutions. […] Application solutions were prepared by adding an appropriate amount of each stock solution (e.g., 1 mL) and diluted to the appropriate final concentrations with the addition of an appropriate amount of an aqueous mixture of 1.5% (v/v) crop oil concentrate so that the final spray solutions contained 1.25% (v/v) crop oil concentrate. […]

[4] = test system: LEFCH (Leptochloa chinensis, Chinese sprangletop); assay: In-water applied weed control, transplanted paddy rice, greenhouse (Example II); format: in vivo, Leptochloa chinensis (L.) Nees
Description: (§8) Weed seeds or nutlets of the desired test plant species were planted in puddled soil (mud) prepared by mixing a shredded, non-sterilized mineral soil (50.5 percent silt, 25.5 percent clay, and 24 percent sand, with a pH of about 7.6 and an organic matter content of about 2.9 percent) and water at a 1:1 volumetric ratio. The prepared mud was dispensed in 365 mL aliquots into 16-ounce (oz.) non-perforated plastic pots with a surface area of 86.59 square centimeters (cm^2) leaving a headspace of 3 centimeters (cm) in each pot. Rice seeds were planted in Sun Gro MetroMix® 306 planting mixture, which typically has a pH of 6.0 to 6.8 and an organic matter content of about 30 percent, in plastic plug trays. Seedlings at the second or third leaf stage of growth were transplanted into 860 mL of mud contained in 32-oz. non-perforated plastic pots with a surface area of 86.59 cm^2 4 days prior to herbicide application. The paddy was created by filling the headspace of the pots with 2.5 to 3 cm of water. When required to ensure good germination and healthy plants, a fungicide treatment and/or other chemical or physical treatment was applied. The plants were grown for 4-22 days in a greenhouse with an approximate 14 h photoperiod which was maintained at about 29′C during the day and 26° C. during the night. Nutrients were added as Osmocote® (19:6:12, N:P:K+minor nutrients) at 2 g per 16-oz. pot and 4 g per 32-oz. pot. Water was added on a regular basis to maintain the paddy flood, and supplemental lighting was provided with overhead metal halide 1000-Watt lamps as necessary. The plants were employed for testing when they reached the first through fourth true leaf stage.
(§9) Treatments consisted of the acid or esters of 4-amino-3-chloro-5-fluoro-6-(4-chloro-2-fluoro-3-methoxy-phenyl)pyridine-2-carboxylic acid (compound A) each formulated as an SC and various herbicidal components alone and in combination. Forms of compound A were applied on an acid equivalent basis.
(§10) Other herbicidal components were applied on an active ingredient basis and included acetolactate synthase (ALS)-inhibiting herbicides (sulfonylurea chemical class), azimsulfuron formulated as Gulliver®, bensulfuron-methyl formulated as Londax® 60DF, cyclosulfamuron (technical grade materail), ethoxysulfuron formulated as Sunrice® 15 WDG, flucetosulfuron formulated as Sukedachi® 1KG G, imazosulfuron formulated as Brazzos®, metsulfuron-methyl formulated as Lorate®, nicosulfuron formulated as Accent®, orthosulfamuron formulated as Strada® WG, propyrisulfuron formulated as Zeta One®, and rimsulfuron formulated as Matrix® WG.
(§11) Treatment requirements for each compound or herbicidal component were calculated based upon the rates being tested, the concentration of active ingredient or acid equivalent in the formulation, an application volume of 2 mL per component per pot, and an application area of 86.59 cm^2 per pot.
(§12) For formulated compounds, a measured amount was placed in an individual 100 or 200 mL glass vial and was dissolved in a volume of 1.25% (v/v) Agri-Dex® crop oil concentrate to obtain application solutions.
(§13) For technical grade compounds, a weighed amount was placed in an individual 100 to 200 mL glass vial and was dissolved in a volume of acetone to obtain concentrated stock solutions. […] The concentrated stock solutions obtained were diluted with an equivalent volume of an aqueous mixture containing 2.5% (v/v) crop oil concentrate so that the final application solutions contained 1.25% (v/v) crop oil concentrate.
(§14) Applications were made by injecting with a pipetter appropriate amounts of the application solutions, individually and sequentially, into the aqueous layer of the paddy. Control plants were treated in the same manner with the solvent blank. Applications were made so that all treated plant material received the same concentrations of acetone and crop oil concentrate. […]

[5] = test system: ISCRU (Ischaemum rugosum, saramollagrass); assay: Postemergence foliar-applied weed control, direct seeded rice, greenhouse (Example I); format: in vivo, Ischaemum rugosum Salisb.; conditions: 21 DAA
From the text: as §2, §3, §4, §5, §6, §7

[6] = test system: ECHCO (Echinochloa colona, junglerice); assay: In-water applied weed control, transplanted paddy rice, greenhouse (Example II); format: in vivo, Echinochloa colona (L.) Link
Description: as §8, §9, §10, §11, §12, §13, §14

[7] = test system: SCPMA (Bolboschoenus maritimus or Schoenoplectus maritimus, sea clubrush); assay: as above; format: in vivo, Bolboschoenus maritimus (L.) Palla
How it was run: as §1

[8] = test system: DIGSA (Digitaria sanguinalis, large crabgrass); assay: Postemergence foliar-applied weed control, direct seeded rice, greenhouse (Example I); format: in vivo, Digitaria sanguinalis (L.) Scop.; conditions: 24 DAA
From the text: as §2, §3, §4, §5, §6, §7

[9] = test system: LEFCH (Leptochloa chinensis, Chinese sprangletop); assay: as above; format: in vivo, Leptochloa chinensis (L.) Nees; conditions: Dinebra chinensis, post-emergence, 576 h, 24 DAA, read-out: Visual Weed Control (%) Obs
From the text: as §2, §3, §4, §5, §6, §7

[10] = test system: FIMMI (Fimbristylis miliacea, globe fringerush); assay: In-water applied weed control, transplanted paddy rice, greenhouse (Example II); format: in vivo, Fimbristylis miliacea (L.) Vahl
Description: as §8, §9, §10, §11, §12, §13, §14

CCOc1ccccc1OS(=O)(=O)NC(=O)Nc1nc(OC)cc(OC)n1 [Ethoxysulfuron, 2-ethoxyphenyl[[(4,6-dimethoxy-2-pyrimidinyl)amino]carbonyl]sulfamate, reference compound]
pest or weed control at 7.5 g/ha ([1]; 528 h, 22 DAA, 7.5 gai/ha): 0% | pest or weed control at 15 g/ha ([1]; 528 h, 22 DAA, 15 gai/ha): 0% | pest or weed control at 30 g/ha ([1]; 528 h, 22 DAA, 30 gai/ha): 0% | Visual Weed Control (%) - 22 DAA ECHOR Obs ([2]; Table 34, 7.5 gai/ha alone): 10% | Visual Weed Control (%) - 22 DAA ECHOR Obs ([2]; Table 35, 7.5 gai/ha alone): 10% | Visual Weed Control (%) - 22 DAA ECHOR Obs ([2]; Table 35, 15 gai/ha alone): 20% | Visual Weed Control (%) Obs ([3]; 7.5 gai/ha): 50% | Visual Weed Control (%) Obs ([3]; 15 gai/ha): 50% | Visual Weed Control (%) Obs ([3]; 30 gai/ha): 85% | Visual Weed Control (%) - 22 DAA LEFCH Obs ([4]; Table 34, 15 gai/ha alone): 0% | Visual Weed Control (%) - 22 DAA LEFCH Obs ([4]; Table 35, 7.5 gai/ha alone): 0% | Visual Weed Control (%) - 22 DAA LEFCH Obs ([4]; Table 35, 15 gai/ha alone): 0% | Visual Weed Control (%) Obs ([5]; 17.5 gai/ha): 0% | Visual Weed Control (%) Obs ([5]; 70 gai/ha): 0%

COc1cc(OC)nc(NC(=O)NS(=O)(=O)c2c(Cl)nc3ccccn23)n1 [Imazosulfuron, 2-chloro-N-[[(4,6-dimethoxy-2-pyrimidinyl)amino]carbonyl]imidazo[1,2-a]pyridine-3-sulfonamide, reference compound]
Visual Weed Control (%) - 21 DAA ECHCO Obs ([6]; Table 38, 22.5 gai/ha alone): 20% | Visual Weed Control (%) - 21 DAA ECHCO Obs ([6]; Table 38, 45 gai/ha alone): 20% | Visual Weed Control (%) - 21 DAA ECHCO Obs ([6]; Table 39, 45 gai/ha alone): 20% | Visual Weed Control (%) - 20 DAA SCPMA Obs ([7]; Table 38, 168 gai/ha alone): 65% | Visual Weed Control (%) - 20 DAA SCPMA Obs ([7]; Table 39, 168 gai/ha alone): 65% | Visual Weed Control (%) - 20 DAA SCPMA Obs ([7]; Table 40, 168 gai/ha alone): 65% | Visual Weed Control (%) Obs ([8]; 21 gai/ha): 0% | Visual Weed Control (%) Obs ([8]; 42 gai/ha): 0% | pest or weed control at 21 g/ha ([9]; 21 gai/ha): 0% | pest or weed control at 42 g/ha ([9]; 42 gai/ha): 0% | pest or weed control at 84 g/ha ([9]; 84 gai/ha): 0%

CCCc1ccc2nc(Cl)c(S(=O)(=O)NC(=O)Nc3nc(OC)cc(OC)n3)n2n1 [Propyrisulfuron, 2-chloro-N-[[(4,6-dimethoxy-2-pyrimidinyl)amino]carbonyl]-6-propylimidazo[1,2-b]pyridazine-3-sulfonamide, reference compound]
pest or weed control at 11.25 g/ha ([1]; 504 h, 21 DAA, 11.25 gai/ha): 0% | pest or weed control at 22.5 g/ha ([1]; 504 h, 21 DAA, 22.5 gai/ha): 20% | pest or weed control at 45 g/ha ([1]; 504 h, 21 DAA, 45 gai/ha): 10% | Visual Weed Control (%) - 21 DAA SCPMA Obs ([7]; Table 48, 11.25 gai/ha alone): 80% | Visual Weed Control (%) - 21 DAA LEFCH Obs ([4]; Table 47, 22.5 gai/ha alone): 0% | Visual Weed Control (%) - 21 DAA LEFCH Obs ([4]; Table 47, 45 gai/ha alone): 0% | Visual Weed Control (%) - 21 DAA FIMMI Obs ([10]; Table 48, 11.25 gai/ha alone): 85% | Visual Weed Control (%) - 21 DAA FIMMI Obs ([10]; Table 48, 22.5 gai/ha alone): 88% | Visual Weed Control (%) - 21 DAA FIMMI Obs ([10]; Table 48, 45 gai/ha alone): 95%
